Laboratory results published in patent US20240270821A1, “GIP/GLP1/GCG TRI-RECEPTOR AGONISTS AND USES THEREOF” (priority 2023, published 2024).
Like-named read-outs stand apart in the source and are kept apart here. Starred links: 1 amine or outer side, 2 acyl side, 3 side chain; linkers in the order of their positions; H or OH if unused. Non-standard residues stand in square brackets, D forms with d. Groups on a side chain read outwards from the residue. No end group written: not given here. *: point of attachment. C18 diacid = O=C(O)CCCCCCCCCCCCCCCCC(=O)*; αMePhe(2-F) = C[C@](N)(Cc1ccccc1F)C(=O)O; γGlu = O=C(O)[C@H](CCC(=O)[*:2])N[*:1]; αMe4Pal = C[C@](N)(Cc1ccncc1)C(=O)O; αMeY = C[C@](N)(Cc1ccc(O)cc1)C(=O)O; 4Pal = N[C@@H](Cc1ccncc1)C(=O)O; αMeL = CC(C)C[C@](C)(N)C(=O)O; Orn = NCCC[C@H](N)C(=O)O; Dab = NCC[C@H](N)C(=O)O; Aib = CC(C)(N)C(=O)O

How the values were obtained:
Assay type in all cases: cell-based
hGcgR = hGcgR (Homo sapiens, UniProt P47871); assay: Functional cAMP activation in the presence of 0.1% casein (no HSA); conditions: read-out: Relative cAMP EC50, hGcgR;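 also: intracellular cAMP rise after 30 min at 37 °C, read by HTRF against a cAMP standard curve, scaled from buffer only (0%) to maximal control ligand response (100%)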
hGLP-1R [1] = molecular target: T1, hGLP-1R (Homo sapiens, UniProt P43220); assay: Functional cAMP activity in the presence of 1% HSA; conditions: read-out: cAMP Rel EC50, hGLP-1R
human GcgR = human GcgR (Homo sapiens, UniProt P47871); assay: Functional cAMP activity in the presence of 1% HSA; conditions: read-out: cAMP Rel EC50, hGcgR
hGLP-1R [2] = molecular target: T1, hGLP-1R; assay: Functional cAMP activation in the presence of 0.1% casein (no HSA); conditions: read-out: Relative cAMP EC50, hGLP-1R;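 as to Relative cAMP EC50, hGIPR: intracellular cAMP rise after 30 min at 37 °C read by HTRF against a standard curve, scaled between buffer alone (0%) and top control ligand concentration (100%), four-parameter fit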;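 as to Relative cAMP EC50, hGLP-1R: intracellular cAMP rise after 30 min at 37 °C read by HTRF, normalized between buffer only (0%) and maximal control ligand (100%), four-parameter variable-slope fit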
hGIPR [3] = molecular target: T2, hGIPR (Homo sapiens, UniProt P48546); assay: as above; conditions: read-out: Relative cAMP EC50, hGIPR;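 also: intracellular cAMP rise after 30 min at 37 °C read by HTRF against a standard curve, scaled between buffer alone (0%) and top control ligand concentration (100%), four-parameter fit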
T2 sequence (P48546 22-466): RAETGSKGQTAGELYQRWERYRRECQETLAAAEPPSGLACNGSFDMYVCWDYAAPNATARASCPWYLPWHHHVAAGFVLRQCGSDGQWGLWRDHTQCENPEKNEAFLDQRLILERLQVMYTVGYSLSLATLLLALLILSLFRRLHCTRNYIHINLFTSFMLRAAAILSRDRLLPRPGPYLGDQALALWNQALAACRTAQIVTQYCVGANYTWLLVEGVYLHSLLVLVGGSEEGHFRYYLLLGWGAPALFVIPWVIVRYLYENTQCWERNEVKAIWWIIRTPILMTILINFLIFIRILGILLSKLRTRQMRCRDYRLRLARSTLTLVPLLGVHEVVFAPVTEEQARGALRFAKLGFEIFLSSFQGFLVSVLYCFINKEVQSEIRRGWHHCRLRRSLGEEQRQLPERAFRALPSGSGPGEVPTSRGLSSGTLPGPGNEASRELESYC

hGIPR [4] = molecular target: T2, hGIPR; assay: Functional cAMP activity in the presence of 1% HSA; conditions: read-out: cAMP Rel EC50, hGIPR
[5] = in the presence of 0.1% casein (no HSA), geometric mean
[6] = HEK-293 clonal cell line, in the presence of 1% HSA, geometric mean of relative EC50

T1 sequence (P43220 24-463): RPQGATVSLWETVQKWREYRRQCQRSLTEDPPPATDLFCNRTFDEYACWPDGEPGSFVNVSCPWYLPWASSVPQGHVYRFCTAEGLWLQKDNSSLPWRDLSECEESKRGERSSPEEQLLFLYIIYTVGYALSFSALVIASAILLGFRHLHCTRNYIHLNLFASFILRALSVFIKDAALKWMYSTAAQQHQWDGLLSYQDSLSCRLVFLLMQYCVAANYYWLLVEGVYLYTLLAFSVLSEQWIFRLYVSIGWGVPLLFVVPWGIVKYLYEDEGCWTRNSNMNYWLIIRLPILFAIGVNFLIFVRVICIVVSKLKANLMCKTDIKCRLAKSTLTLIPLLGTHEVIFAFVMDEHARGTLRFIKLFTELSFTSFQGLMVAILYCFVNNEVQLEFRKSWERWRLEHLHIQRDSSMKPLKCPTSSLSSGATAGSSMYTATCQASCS
Sequence of hGcgR (P47871 26-477): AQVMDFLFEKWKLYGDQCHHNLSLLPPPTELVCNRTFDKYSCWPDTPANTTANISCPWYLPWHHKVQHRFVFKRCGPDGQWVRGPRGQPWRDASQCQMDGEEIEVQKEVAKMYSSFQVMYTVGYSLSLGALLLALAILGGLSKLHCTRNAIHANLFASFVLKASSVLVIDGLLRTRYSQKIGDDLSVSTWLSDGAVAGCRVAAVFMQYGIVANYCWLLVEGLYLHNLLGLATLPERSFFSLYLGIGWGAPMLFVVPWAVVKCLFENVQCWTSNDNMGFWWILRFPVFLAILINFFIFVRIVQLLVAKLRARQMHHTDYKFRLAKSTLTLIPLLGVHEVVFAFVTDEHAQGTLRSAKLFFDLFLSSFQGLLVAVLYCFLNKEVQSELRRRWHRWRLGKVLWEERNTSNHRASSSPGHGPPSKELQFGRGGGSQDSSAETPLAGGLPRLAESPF
Sequence of human GcgR (P47871 26-477): as above

Molecule | EC50 (hGcgR; [5]) [nM] | EC50 (hGLP-1R [1]) [nM] | EC50 (human GcgR) [nM] | EC50 (hGLP-1R [2]; [5]) [nM] | EC50 (hGIPR [3]; [5]) [nM] | EC50 (hGLP-1R [1]; HEK-293 clonal cells expressing hGLP-1R, in the presence of 1% HSA, geometric mean of relative EC50) [nM] | EC50 (human GcgR; HEK-293 clonal cells expressing hGcgR, in the presence of 1% HSA, geometric mean of relative EC50) [nM] | EC50 (hGIPR [4]; [6]) [nM] | EC50 (human GcgR; [6]) [nM] | EC50 (hGIPR [4]) [nM] | EC50 (hGcgR) [nM] | EC50 (hGLP-1R [2]) [nM] | EC50 (hGIPR [3]) [nM]
CC[C@H](C)[C@H](NC(=O)[C@H](Cc1ccccc1)NC(=O)[C@H](C)NC(=O)C(C)(C)NC(=O)[C@H](CCC(N)=O)NC(=O)[C@H](C)NC(=O)[C@H](CCCCNC(=O)COCCOCCNC(=O)CC[C@H](NC(=O)CCCCCCCCCCCCCCCCC(=O)O)C(=O)O)NC(=O)[C@H](CCCCN)NC(=O)[C@H](CC(=O)O)NC(=O)[C@H](CC(C)C)NC(=O)[C@](C)(CC(C)C)NC(=O)[C@H](CCCN)NC(=O)[C@H](CO)NC(=O)[C@H](Cc1ccccc1)NC(=O)[C@H](CC(=O)O)NC(=O)[C@H](CO)NC(=O)[C@@H](NC(=O)[C@H](Cc1ccccc1)NC(=O)[C@@H](NC(=O)CNC(=O)[C@H](CCC(N)=O)NC(=O)C(C)(C)NC(=O)[C@@H](N)Cc1ccc(O)cc1)[C@@H](C)O)[C@@H](C)O)C(=O)N[C@@H](CCC(=O)O)C(=O)N[C@@H](Cc1ccc(O)cc1)C(=O)N[C@@H](CC(C)C)C(=O)N[C@@H](CC(C)C)C(=O)N[C@@H](CCC(=O)O)C(=O)NC(C)(C)C(=O)NCC(=O)N[C@@H](CCC(=O)O)C(=O)N[C@@H](CO)C(=O)N[C@@H](CO)C(=O)NCC(=O)N[C@@H](C)C(=O)N1CCC[C@H]1C(=O)N1CCC[C@H]1C(=O)N1CCC[C@H]1C(=O)N[C@@H](CO)C(=O)NCC(=O)N[C@@H](CCC(=O)O)C(N)=O [Example 246] | 2.38 | 845 | 639 | 3.91 | 0.106 | – | – | – | – | – | – | – | –
CC[C@H](C)[C@H](NC(=O)[C@H](Cc1ccccc1)NC(=O)[C@H](C)NC(=O)C(C)(C)NC(=O)[C@H](CCC(N)=O)NC(=O)[C@H](C)NC(=O)[C@H](CCCCNC(=O)COCCOCCNC(=O)CC[C@H](NC(=O)CCCCCCCCCCCCCCCCC(=O)O)C(=O)O)NC(=O)[C@H](CCCCN)NC(=O)[C@H](CC(=O)O)NC(=O)[C@H](CC(C)C)NC(=O)[C@](C)(CC(C)C)NC(=O)[C@H](CCCN)NC(=O)[C@H](CO)NC(=O)[C@H](Cc1ccccc1)NC(=O)[C@H](CC(=O)O)NC(=O)[C@H](CO)NC(=O)[C@@H](NC(=O)[C@H](Cc1ccccc1)NC(=O)[C@@H](NC(=O)CNC(=O)[C@H](CCC(N)=O)NC(=O)C(C)(C)NC(=O)[C@@H](N)Cc1ccc(O)cc1)[C@@H](C)O)[C@@H](C)O)C(=O)N[C@@H](CCC(=O)O)C(=O)N[C@@H](Cc1c[nH]c2ccccc12)C(=O)N[C@@H](CC(C)C)C(=O)N[C@@H](CC(C)C)C(=O)N[C@@H](CCC(=O)O)C(=O)NCC(=O)NCC(=O)N1CCC[C@H]1C(=O)N[C@@H](CO)C(=O)N[C@@H](CO)C(=O)NCC(=O)N[C@@H](C)C(=O)N1CCC[C@H]1C(=O)N1CCC[C@H]1C(=O)N1CCC[C@H]1C(=O)N[C@@H](Cc1ccncc1)C(=O)NCC(=O)N[C@@H](CO)C(N)=O [Example 251] | 6.98 | 301 | 1500 | 2.64 | 0.153 | – | – | – | – | – | – | – | –
CC[C@H](C)[C@H](NC(=O)[C@H](Cc1ccccc1)NC(=O)[C@H](C)NC(=O)C(C)(C)NC(=O)[C@H](C)NC(=O)[C@H](C)NC(=O)[C@H](CCCCNC(=O)COCCOCCNC(=O)CC[C@H](NC(=O)CCCCCCCCCCCCCCCCC(=O)O)C(=O)O)NC(=O)[C@H](CCCCN)NC(=O)[C@H](CC(=O)O)NC(=O)[C@H](CC(C)C)NC(=O)[C@](C)(CC(C)C)NC(=O)[C@@H](NC(=O)[C@H](CO)NC(=O)[C@H](Cc1ccc(O)cc1)NC(=O)[C@H](CC(=O)O)NC(=O)[C@H](CO)NC(=O)[C@@H](NC(=O)[C@](C)(Cc1ccccc1F)NC(=O)[C@@H](NC(=O)CNC(=O)[C@H](CCC(N)=O)NC(=O)C(C)(C)NC(=O)[C@@H](N)Cc1c[nH]cn1)[C@@H](C)O)[C@@H](C)O)[C@@H](C)CC)C(=O)N[C@@H](CCC(=O)O)C(=O)N[C@@H](Cc1ccc(O)cc1)C(=O)N[C@@H](CC(C)C)C(=O)N[C@H](C(=O)N[C@@H](CCC(=O)O)C(=O)N[C@H](C(=O)NCC(=O)N1CCC[C@H]1C(=O)N[C@@H](CO)C(=O)N[C@@H](CO)C(=O)NCC(=O)N[C@@H](CCC(=O)O)C(=O)N1CCC[C@H]1C(=O)N1CCC[C@H]1C(=O)N1CCC[C@H]1C(=O)N[C@@H](CO)C(=O)N[C@@H](CCC(=O)O)C(=O)NCC(N)=O)[C@@H](C)O)[C@@H](C)CC [Example 291] | 1.88 | – | – | 0.22 | 0.26 | 24.5 | 311 | – | – | – | – | – | –
CC[C@H](C)[C@H](NC(=O)[C@H](Cc1ccccc1)NC(=O)[C@H](CCCN)NC(=O)C(C)(C)NC(=O)[C@H](CCC(N)=O)NC(=O)[C@H](C)NC(=O)[C@H](CCCCNC(=O)COCCOCCNC(=O)CC[C@H](NC(=O)CCCCCCCCCCCCCCCCCCC(=O)O)C(=O)O)NC(=O)[C@H](CCCN)NC(=O)[C@H](CC(=O)O)NC(=O)[C@H](CC(C)C)NC(=O)[C@](C)(CC(C)C)NC(=O)[C@@H](NC(=O)[C@H](CO)NC(=O)[C@H](Cc1ccncc1)NC(=O)[C@H](CC(=O)O)NC(=O)[C@H](CO)NC(=O)[C@@H](NC(=O)[C@](C)(Cc1ccccc1F)NC(=O)[C@@H](NC(=O)CNC(=O)[C@H](CCC(N)=O)NC(=O)C(C)(C)NC(=O)[C@@H](N)Cc1ccc(O)cc1)[C@@H](C)O)[C@@H](C)O)[C@@H](C)CC)C(=O)N[C@H](CCC(=O)O)C(=O)N[C@@](C)(Cc1ccc(O)cc1)C(=O)N[C@@H](CC(C)C)C(=O)N[C@@H](CC(C)C)C(=O)N[C@@H](CCC(=O)O)C(=O)NCC(=O)NCC(=O)N1CCC[C@H]1C(=O)N[C@@H](CO)C(=O)N[C@@H](CO)C(=O)NCC(=O)N[C@@H](CCC(=O)O)C(=O)N1CCC[C@H]1C(=O)N1CCC[C@H]1C(=O)N1CCC[C@H]1C(=O)N[C@@H](CO)C(N)=O [Example 365] | 4.24 | 75.2 | 1490 | 0.265 | 0.0336 | – | – | – | – | – | – | – | –
H-Y[Aib]QGTFTSD[4Pal]S[Dab][αMeL]LD[Orn]K([γGlu-γGlu-C18 diacid])AQ[αMe4Pal]AFIE[αMe4Pal]LLAGGPSSGAPPPEGSEE-NH2 [Example 1055] | 1.88 | – | – | 14.6 | 0.366 | – | – | 78.9 | 450 | – | – | – | –
H-Y[Aib]QGTFTSD[4Pal]S[Orn][αMeL]LDKK([Glu-γGlu-C18 diacid])AQ[αMe4Pal]AFIEYLIAGGPSSGAPPPSGSEE-NH2 [Example 1060] | 9.08 | – | 4900 | 2.85 | 0.223 | – | – | – | – | 44.7 | – | – | –
H-Y[Aib]QGTFTSD[4Pal]S[Orn][αMeL]LD[Orn]K([Glu-Glu-γGlu-C18 diacid])AQ[αMe4Pal]AFIEYLIAGGPSSGAPPPSGSEE-NH2 [Example 1062] | 8.77 | – | 2380 | 7.75 | 0.726 | – | – | – | – | 67.5 | – | – | –
H-Y[Aib]QGTFTSD[4Pal]S[Orn][αMeL]LD[Orn]K([Glu-γGlu-C18 diacid])AQ[αMe4Pal]AFIEYLIAGGPSSGAPPPSGSEE-NH2 [Example 1061] | 17.3 | – | 2910 | 4.56 | 0.656 | – | – | – | – | 55.6 | – | – | –
H-Y[Aib]QGTFTSD[4Pal]S[Orn][αMeL]LD[Orn]K([γGlu-γGlu-C18 diacid])AQ[αMe4Pal]AFIEYLIAGGPSSGAPPPSGSEE-NH2 [Example 1059] | 7.52 | – | 748 | 4.61 | 0.468 | – | – | – | – | 48.9 | – | – | –
H-Y[Aib]QGT[αMePhe(2-F)]TSD[4Pal]SILLDKK([γGlu-γGlu-C18 diacid])AQ[Aib]AFIEYLTEGGPSSGAPPPSGTE-NH2 [Example 554] | – | – | 946 | – | – | – | – | – | – | 4.08 | 6.83 | 0.423 | 0.0323
Y[Aib]QGTFTSD[4Pal]SQ[αMeL]LD[Orn]K([dE-γGlu-C18 diacid])AQ[αMe4Pal]AFIE[αMeY]LLEGGPSSGAPPPSGSEE-NH2 [Example 1058] | 5.8 | – | 1450 | 4.48 | 0.139 | – | – | – | – | 45.6 | – | – | –
